# Test results from patent publication US20060229242A1, “Composition comprising a pulmonary surfactant and a pde2 inhibitor” (Altana Phazma AG, priority 2003, published 2006).
# Tested on: Male Wistar rats
# Experiment: Rat lung lavage experiment: arterial blood oxygenation after repeated saline lung lavage
# Format: in vivo
# Conditions: rat lung lavage model; intratracheal, 1.2 mL, 60 min after lavage; PODPO 100 nM alone, or VENTICUTE 12.5 mgPL/kg with PODPO 100 nM (p<0.05 to p<0.001 versus VENTICUTE alone); up to 150 min
# Description: (§1) Male Wistar rats were prepared according to Example 5 and lungs were ravaged 5-9 times with NaCl 0.9% (=>PaO2˜50-100 mmHg). After 60 min NaCl 0.9% (open circles), VENTICUTE 12.5 mgPL/kg (filled squares, PL=Phospholipids), PODPO (9-(6-Phenyl-2-oxohex-3-yl)-2-(3,4-dimethoxybenzyl)-purin-6-one) 100 nM (stars), or VENTICUTE 12.5 mgPL/kg in combination with PODPO 100 nM (open squares) was administered intratracheally (administration volume 1.2 mL). Arterial blood oxygenation (PaO2) was determined every 30 min up to 150 min after drug administration (t=210 min). […] Data are shown as mean±SEM. * p<0.05, *** p<0.001 versus VENTICUTE 12.5 mgPL/kg.
# as §1, with “rats (220-250 g)” for “rats”, “anaesthetized, catheterised” for “prepared according”, “withdraw arterial blood,” for “Example 5”, “and ventilated with pure oxygen (=>PaO2˜500-550 mmHg). 30 min later” for “and”, “lavaged” for “ravaged”
structure (smiles),measurement,value
"COc1ccc(Cc2nc3c(ncn3C(CCCc3ccccc3)C(C)=O)c(=O)[nH]2)cc1OC (stereo not shown) [PODPO, 9-(6-Phenyl-2-oxohex-3-yl)-2-(3,4-dimethoxybenzyl)-purin-6-one]","Influence on arterial blood oxygenation (PaO2), in words",no influence on oxygenation
